Source: US20240269125A1, “METHODS OF TREATING CORONAVIRUS INFECTIONS BY CO-ADMINISTERING AN FKBP LIGAND AND AN ANTIVIRAL AGENT” (priority 2020, published 2024)
Where two headings read alike, the source gives them in different places.

Key:
[1] = test system: SARS CoV-2 (USA-WA1/2020); test: organism not typed; format: cell-based
in vitro [2] = settings: African green monkey
[3] = test system: SARS CoV-2 (USA-WA1/2020); test: organism not typed; format: cell-based; settings: for reduction in SARS COV-2 virus: Example 6
[4] = test system: SARS COV-2 (USA_WA1/2020); format: cell-based; settings: Example 10; remdesivir alone up to 6,666.667 nM; FK1706 alone up to 60,000 nM
Vero E6 cells = settings: Table 1, Example 6; 50% cell death in absence of virus, day 4
in vitro [5] = settings: African green monkey, TC50, Table 1, Example 6
[6] = Example 9, antiviral alone at sub-therapeutic level (molnupiravir 0.3 μM; remdesivir 3 μM)
[7] = TC50, Table 2, Example 7, 50% cell death in absence of virus, day 3
[8] = TC50, Table 4, Example 9, single conc. (sub-therapeutic antiviral alone)

CCC(C)(C)C(=O)C(=O)N1CCC[C@H]1C(=O)O [GPI-1485]
reduction in SARS COV-2 virus ([1]; Example 9, GPI-1485 40-320 μM, alone or co-administered with fixed antiviral): 0-6% | EC50 ([1]; Vero C1008, 72 h, Table 4, Example 9, Vero E6, day 3): > 320 µM | CC50 (in vitro [2]; TC50, Table 4, Example 9, day 3): > 320 µM

CO[C@H]1C[C@@H](C)C/C(C)=C/[C@@H](CC(C)=O)C(=O)C[C@H](O)[C@@H](C)C(/C(C)=C/[C@@H]2CC[C@@H](O)[C@H](OC)C2)OC(=O)C2CCCCC2C(=O)C(=O)[C@]2(O)O[C@H]1[C@@H](OC)C[C@H]2C (some centres unmarked) [FK1706]
reduction in SARS COV-2 virus ([3]; FK1706 11-90 μM, alone or co-administered with fixed antiviral): 0-7% | EC50 ([3]; Vero C1008, 96 h, Table 1, Example 6, Vero E6, concentration inhibiting CPE by 50%, day 4, read-out: EC50): > 90 µM | reduction in SARS COV-2 virus ([1]; Example 8, FK1706 alone 2.85-90 μM): 0-10% | EC50 ([1]; Vero C1008, 72 h, Table 3, Example 8, Vero E6, day 3, read-out: EC50): > 90 µM | antiviral activity as single agent [4]: no significant antiviral activity | TC50 (Vero E6 cells): >90 µM | CC50 (in vitro [2]; TC50, Table 3, Example 8, day 3): > 90 µM

CCC(CC)COC(=O)[C@H](C)N[P@](=O)(OC[C@H]1O[C@@](C#N)(c2ccc3c(N)ncnn23)[C@H](O)[C@@H]1O)Oc1ccccc1 [Remdesivir]
EC50 [3]: > 3 µM | reduction in SARS COV-2 virus ([3]; antiviral alone at sub-therapeutic level (remdesivir 3 μM; M128533 1 μg/mL)): 5-14% | EC50 ([3]; Vero C1008, 96 h): 3.63 µM | reduction in SARS COV-2 virus ([1]; Example 7, antiviral alone at sub-therapeutic level (remdesivir 3 μM; M128533 1 μg/mL)): 2-19% | reduction in SARS COV-2 virus [1, 6]: 20-30% | EC50 ([1]; Table 2, Example 7, single conc. (sub-therapeutic antiviral alone)): > 3 µM | EC50 ([1]; Table 4, Example 9, single conc. (sub-therapeutic antiviral alone)): > 0.3 µM | EC50 ([1]; Vero C1008, 72 h, Table 2, Example 7, Vero E6, concentration inhibiting CPE by 50%, day 3): 7.31 µM | CC50 (in vitro [5]; 50% cell death in absence of virus, day 4): > 100 µM | CC50 (in vitro [5]; single conc. (sub-therapeutic antiviral alone)): > 3 µM | CC50 (in vitro [2]; [7]): > 100 µM | CC50 (in vitro [2]; TC50, Table 2, Example 7, single conc. (sub-therapeutic antiviral alone)): > 3 µM | CC50 (in vitro [2]; [8]): > 0.3 µM

O=C(C(=O)N1CCCC[C@H]1C(=O)NCCCc1ccccc1)c1ccccc1 [ElteN378]
reduction in SARS COV-2 virus ([1]; Example 7, ElteN378 0.12-30 μM, alone or co-administered with fixed antiviral): 0-7% | EC50 ([1]; Vero C1008, 72 h, Table 2, Example 7, Vero E6, concentration inhibiting CPE by 50%, day 3, read-out: EC50): > 30 µM | CC50 (in vitro [2]; [7]): > 30 µM

CC(C)C(=O)OC[C@H]1O[C@@H](n2ccc(=NO)[nH]c2=O)[C@H](O)[C@@H]1O [Molnupiravir, ((2R,3S,4R,5R)-3,4-dihydroxy-5-(4-(hydroxyimino)-2-oxo-3,4-dihydropyrimidin-1(2H)-yl)tetrahydrofuran-2-yl)methyl isobutyrate]
reduction in SARS COV-2 virus ([1]; Example 8, molnupiravir alone 0.3 μM): 4-13% | reduction in SARS COV-2 virus [1, 6]: 4-13% | EC50 ([1]; Table 3, Example 8, single conc. (0.3 μM molnupiravir alone), read-out: EC50): > 0.3 µM | EC50 ([1]; Table 4, Example 9, single conc. (sub-therapeutic antiviral alone), read-out: EC50): > 0.3 µM | CC50 (in vitro [2]; TC50, Table 3, Example 8, single conc. (0.3 μM molnupiravir alone)): > 0.3 µM | CC50 (in vitro [2]; [8]): > 0.3 µM
